The record followed here is patent US9943529B2, “Methods for reducing cellular proliferation and treating certain diseases” (BRIGHAM YOUNG UNIVERSITY, priority 2013, dated 2018).

For one assay, the system named is MALME-3M. Description: NCI screen antiproliferative activity, sulforhodamine B, Melanoma panel. It is filed as cell-based, human. Conditions: 48 hours, five 10-fold dilutions starting from 100 μM.
The subject of another assay is A549/ATCC. The settings on record: 48 hours, five 10-fold dilutions starting from 100 μM.
The subject of a further assay is NCI-H460. The settings on record: 48 hours, five 10-fold dilutions starting from 100 μM.
A further assay has as its system SF-295. The settings on record: 48 hours, five 10-fold dilutions starting from 100 μM.
A further assay concerns UACC-62. The settings on record: 48 hours, five 10-fold dilutions starting from 100 μM.
The test system of assay [1] is MDA-MB-435. The settings on record: 48 hours, five 10-fold dilutions starting from 100 μM.
The next assay relates to T-47D. The settings on record: 48 hours, five 10-fold dilutions starting from 100 μM.
Another assay concerns U251. The assay can be described thus: cells. Conditions: Homo sapiens, U-251, 48 h.
For another assay, the system named is SK-MEL-28. The assay can be described thus: cells. The settings on record: Homo sapiens, SK-MEL-28, 48 h.
The next assay deals with TK-10. The assay can be described thus: cells. The settings on record: Homo sapiens, TK-10, 48 h.
Assay [2] concerns MDA-MB-435. Description: cells. The settings on record: Homo sapiens, MDA-MB-435, 48 h.
Another assay deals with BT-549. The assay can be described thus: cells. The settings on record: Homo sapiens, BT-549, 48 h.

Structures are written as SMILES.

As usually defined, the TGI is the concentration giving total growth inhibition. Broadly, the GI50 is the concentration at which growth is held to half of that of the control. Higher therefore signals lower sensitivity of the cells. Turning to `CCCCCCCCNCCC[C@@H](C)[C@H]1CC[C@H]2[C@@H]3[C@H](OCCCN)C[C@@H]4C[C@H](OCCCN)CC[C@]4(C)[C@H]3C[C@H](OCCCN)[C@]12C` [CSA-13], the total growth inhibition concentration (TGI) with MALME-3M worked out at 3880 nM; in the assay with A549/ATCC, 9330 nM; in the assay on NCI-H460, 3920 nM; in the assay on SF-295 it was 2660 nM; in the assay with UACC-62 it was 2290 nM; in the assay with MDA-MB-435 [1], 1460 nM. In the assay with T-47D, this compound yielded a TGI of 7130 nM. For the same compound, the GI50 in the assay on MALME-3M (Homo sapiens) turned out to be 1760 nM; in the assay on U251, 1370 nM; in the assay with SK-MEL-28, 291 nM; with TK-10 it was 974 nM; in the assay with MDA-MB-435 [2], 318 nM; with BT-549 it was 1070 nM. Besides, the CC50 in the assay with U251 (read-out: LC50) is 6810 nM; in the assay on SK-MEL-28 (read-out: LC50) it was 5460 nM; in the assay with TK-10 (read-out: LC50), greater than 100000 nM; in the assay on MDA-MB-435 [2] (read-out: LC50), 5680 nM; in the assay on BT-549 (read-out: LC50) it was greater than 100000 nM.
